Here are results for 41 compounds from patent publication US5607691A, “Compositions and methods for enhanced drug delivery” (priority 1995, dated 1997).

Counter-ions that a name gives are not always drawn.

Experiment in the first series: not given
Particulars: given intravenously or intramuscularly; cited from earlier work.
With `O=C1Nc2ccc(Cl)cc2C(c2ccccc2Cl)=NC1O` (centres unmarked) [lorazepam, 7-chloro-5-(o-chlorophenyl)-1,3-dihydro-3-hydroxy-2H-1,4-benzodiazepin-2-one], the mean half-life entry was “about 16 hours”.

The nature of a further series: in vitro. Particulars: Table 5; human serum, 37° C. Format: in vitro ADME, human. The procedure, abridged:
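Complex from 6 mM ethanol stock added to freshly defrosted human serum at 37° C. Aliquots quenched in 2% zinc sulfate, centrifuged, and supernatant analysed by reversed-phase C8 HPLC for % remaining by peak area. Half-life from slope of ln % remaining vs time.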
As to “digitoxigenin-3-(O-acetyl-D,L-carnitine) ester, (D isomer), chloride salt”, the “Serum Half-life” value is recorded as ~ 50 min.

Turning to “digoxin-12-{N-[6-(N',N',N'-trimethylamino)hexanoyloxymethyl]glycinoyloxymethyl} carbonate-3"',4"'-cyclic carbonate, bromide salt”, the “Serum Half-life” value is on record as 7 min.

The same series, now with this note: human, serum.
For the compound `CC(=O)[C@H]1CC[C@H]2[C@@H]3CC=C4C=C(OC(=O)C[N+](C)(C)C)CC[C@]4(C)[C@H]3CC[C@]12C.[Br-]` [progesterone-3-betainoyl enol ester, bromide salt], the “Serum Half-life” value amounted to 1.6 min.

The series is the same for the next values; noted with them: human, serum, Table 5; human serum, 37° C.; read-out: Serum Half-life (converted).
In general, half-life refers to how long it takes for the measured level to halve. Take `COc1ccc2c(c1)c(CC(=O)OCCNC(=O)CCCCCN(C)C)c(C)n2C(=O)c1ccc(Cl)cc1` [indomethacin 2-[N-(6'-N',N'-dimethylamino)hexanamido]ethyl ester]: the half-life is 816 min. `COc1ccc2c(c1)c(CC(=O)OCCN(C)C(=O)CCCCC[N+](C)(C)C)c(C)n2C(=O)c1ccc(Cl)cc1` [indomethacin 2-[N-methyl-N-(6'-N',N',N'-trimethyl-amino)hexanamido]ethyl ester, iodide salt]: the half-life was 204 min. For the compound `COc1ccc2c(c1)c(CC(=O)OCCN(C)C(=O)CCCCCN(C)C)c(C)n2C(=O)c1ccc(Cl)cc1` [indomethacin 2-[N-methyl-N-(6'-N',N'-dimethylamino)hexanamido]ethyl ester], the half-life is 13.5 min. Still for that read-out and setting: in the case of `COc1ccc2c(c1)c(CC(=O)OCOC(=O)CCCCCNC(=O)C[C@H](C[N+](C)(C)C)OC(C)=O)c(C)n2C(=O)c1ccc(Cl)cc1` [indomethacin 6-(O-acetyl-L-carnitinamido)hexanoyloxymethyl ester, chloride salt] it was 30 min; in that of `CCN(CC)C(=O)COC(=O)Cc1c(C)n(C(=O)c2ccc(Cl)cc2)c2ccc(OC)cc12` [indomethacin (N,N-diethylglycolamide) ester], 22.8 min; in that of `CCOC(=O)Cc1c(C)n(C(=O)c2ccc(Cl)cc2)c2ccc(OC)cc12` [indomethacin ethyl ester, reference compound], over 5760 min. On the same count and under the same terms, to `COc1ccc2c(c1)c(CC(=O)COC(=O)OCC[N+](C)(C)C)c(C)n2C(=O)c1ccc(Cl)cc1` [indomethacin hydroxymethyl ketone choline iodide carbonate] belongs 1.08 min. Still for that read-out and setting: in the case of `COc1ccc2c(c1)c(CC(=O)CO)c(C)n2C(=O)c1ccc(Cl)cc1` [indomethacin hydroxymethyl ketone] it was 900 min; in that of `COC(=O)Cc1c(C)n(C(=O)c2ccc(Cl)cc2)c2ccc(OC)cc12` [indomethacin methyl ester, reference compound], 8640 min. For `CC(=O)O[C@H](CC(=O)OC1N=C(c2ccccc2Cl)c2cc(Cl)ccc2NC1=O)C[N+](C)(C)C` (some centres unmarked) [lorazepam-3-(O-acetylcarnitine) ester chloride salt], the half-life was 312 min.

Consider `C[N+](C)(C)CCOC(=O)OC1N=C(c2ccccc2Cl)c2cc(Cl)ccc2NC1=O` (centres unmarked) [lorazepam-3-choline carbonate, chloride salt], for which the half-life was 132 min.

Consider `COc1ccc2c(c1)c(CCNC(C)=O)cn2C(=O)OCC[N+](C)(C)C` [melatonin-1-choline carbamate, bromide salt], for which the half-life was 900 min. Turning to `CN(Cc1cnc2nc(N)nc(N)c2n1)c1ccc(C(=O)N[C@@H](CCC(=O)OCOC(=O)CCC[N+](C)(C)C)C(=O)OCOC(=O)CCC[N+](C)(C)C)cc1` [methotrexate-bis-(4-trimethylammoniobutyroyloxymethyl ester), diiodide salt], the half-life was 108 min. Same read-out and setting: to `CN(Cc1cnc2nc(N)nc(N)c2n1)c1ccc(C(=O)N[C@@H](CCC(=O)OCC[N+](C)(C)C)C(=O)OCC[N+](C)(C)C)cc1` [methotrexate-bis-choline ester, dibromide salt] belongs 840 min; to `CCn1cc(C(=O)OCOC(=O)CCCCC[N+](C)(C)C)c(=O)c2ccc(C)nc21` [nalidixic acid 6-(N,N,N-trimethylamino)-hexanoyloxymethyl ester, iodide salt], 4.8 min. `CCn1cc(C(=O)OCC[N+](C)(C)C)c(=O)c2ccc(C)nc21` [nalidixic acid, choline ester, bromide salt]: the half-life was 66 min. With `CCn1cc(C(=O)OCOC(=O)OCC[N+](C)(C)C)c(=O)c2ccc(C)nc21` [nalidixic acid, cholinecarbonato methyl ester, iodide salt], the half-life is 1.27 min. `O=C(OCCc1ccc([N+](=O)[O-])cc1)c1cccnc1` [p-nitrophenylethyl alcohol nicotinate ester]: the half-life is 0.433 min. Same read-out and setting: to `C[n+]1cccc(C(=O)OCCc2ccc([N+](=O)[O-])cc2)c1` [p-nitrophenylethyl alcohol trigonelline ester] belongs 28 min.

As to `CC(=O)[C@H]1CC[C@H]2[C@@H]3CC=C4C=C(OC(=O)CCC[N+](C)(C)C)CC[C@]4(C)[C@H]3CC[C@]12C` [progesterone-3-(4-N,N,N-trimethylammoniobutyrate) enol ester, bromide salt], the half-life was 180 min. Same read-out and setting: to `CC(=O)O[C@H](CC(=O)OC[C@H](NC(=O)OCc1ccccc1)C(=O)OCc1ccccc1)C[N+](C)(C)C` [serine, L-isomer, HO-(O-acetyl-L-carnitine ester) N-CBZ, benzyl ester] belongs 21 min; to `C[n+]1cccc(C(=O)OC[C@H](NC(=O)OCc2ccccc2)C(=O)OCc2ccccc2)c1` [serine, L-isomer, HO-trigonellate ester, N-CBZ, benzyl ester], 5 min. Same read-out and setting: in the case of `C[C@]12CC[C@H]3[C@@H](CCC4=CC(=O)CC[C@@]43C)[C@@H]1CC[C@@H]2OC(=O)OCOC(=O)CCCCC[N+](C)(C)C` [testosterone-17-(6-trimethylammoniohexanoyloxymethyl) carbonate, bromide salt] it was 19 min; in that of `CCOC(=O)C[C@H](C[N+](C)(C)C)OC(=O)O[C@H]1CC[C@H]2[C@@H]3CCC4=CC(=O)CC[C@]4(C)[C@H]3CC[C@]12C` [testosterone-17-(L-carnitineethyl ester) carbonate, iodide salt], 49 min. As to `CC(=O)O[C@H](CC(=O)O[C@H]1CC[C@H]2[C@@H]3CCC4=CC(=O)CC[C@]4(C)[C@H]3CC[C@]12C)C[N+](C)(C)C` [testosterone-17-(O-acetyl-L-carnitinate), chloride salt], the half-life is 5760 min.

As for `CCCCCCCCCCCCCCCC(=O)O[C@H](CC(=O)O[C@H]1CC[C@H]2[C@@H]3CCC4=CC(=O)CC[C@]4(C)[C@H]3CC[C@]12C)C[N+](C)(C)C` [testosterone-17-(O-palmityl-L-carnitinate), chloride salt], the half-life is 7060 min.

On to `C[C@]12CC[C@H]3[C@@H](CCC4=CC(=O)CC[C@@]43C)[C@@H]1CC[C@@H]2OC(=O)OCOC(=O)C[N+](C)(C)C` [testosterone-17-betainoyloxymethyl carbonate, iodide salt], for which the half-life was 0.633 min. In the case of `C[C@]12CC[C@H]3[C@@H](CCC4=CC(=O)CC[C@@]43C)[C@@H]1CC[C@@H]2OC(=O)OCOC(=O)COC(=O)C[N+](C)(C)C` [testosterone-17-betainoyloxymethylcarbonyloxymethyl carbonate, iodide salt], the half-life was 8.5 min. `C[C@]12CC[C@H]3[C@@H](CCC4=CC(=O)CC[C@@]43C)[C@@H]1CC[C@@H]2OC(=O)OCC[N+](C)(C)C` [testosterone-17-choline carbonate, bromide salt]: the half-life is 29 min. On to `Cn1c(=O)c2c(ncn2COC(=O)C[N+](C)(C)C)n(C)c1=O` [theophylline-7-(N,N,N,-trimethylglycyloxymethyl), iodide salt], for which the half-life was 0.5 min. Still for that read-out and setting: to `CN(C)CC(=O)OCn1cnc2c1c(=O)n(C)c(=O)n2C` [theophylline-7-(N,N-dimethylglycyloxymethyl] belongs 1680 min. As for `Cn1c(=O)c2c(ncn2COC(=O)CCC[N+](C)(C)C)n(C)c1=O` [theophylline-7-[4-(N,N,N-trimethylamino)-butyroyloxymethyl], bromide salt], the half-life was 144 min. For the compound `CC(=O)O[C@H](CC(=O)O[C@H](C)[C@H](NC(=O)OCc1ccccc1)C(=O)OCc1ccccc1)C[N+](C)(C)C` [threonine, L-isomer, HO-(O-acetyl-L-carnitine ester), N-CBZ, benzyl ester], the half-life is 40 min.

In the case of `C[C@@H](OC(=O)c1ccc[n+](C)c1)[C@H](NC(=O)OCc1ccccc1)C(=O)OCc1ccccc1` [threonine, L-isomer, HO-trigonellate ester, N-CBZ benzyl ester], the half-life is 40 min.

Experiment in a further series: not given
The note with it: in vivo; cited from earlier work.
Take `CCn1cc(C(=O)O)c(=O)c2ccc(C)nc21` [Nalidixic acid]: the absorption entry was “rapidly absorbed from the gastrointestinal tract”.

As to `C[C@H]1O[C@@H](O[C@H]2[C@@H](O)C[C@H](O[C@H]3[C@@H](O)C[C@H](O[C@H]4CC[C@@]5(C)[C@H](CC[C@@H]6[C@@H]5CC[C@]5(C)[C@@H](C7=CC(=O)OC7)CC[C@]65O)C4)O[C@@H]3C)O[C@@H]2C)C[C@H](O)[C@@H]1O` [digitoxin, 3β,5β-3-[(O-2,6-dideoxy-β-D-ribo-hexopyranosyl(1→4)-O-2,6-dideoxy-β-D-ribo-hexopyranosyl-(1→4)-2,6-dideoxy-β-D-ribohexopyranosyl)oxy]-14-hydroxycard-20(22)-enolide], the absorption result is “completely absorbed”.

Experiment in a further series: not given
The note with it: in animals; cited from earlier work.
For the compound `O=C1Nc2ccc(Cl)cc2C(c2ccccc2Cl)=NC1O[C@@H]1O[C@H](C(=O)O)[C@@H](O)[C@H](O)[C@H]1O` (some centres unmarked) [lorazepam glucuronide], the “central nervous system activity” value is reported as “no demonstrable central nervous system activity”.
